IC50 data for 20 compounds are collected here from US8013153B2, “Substituted pyrimidine kinase inhibitors” (Janssen Pharmaceutica, N.V., priority 2006, dated 2011).

Where two headings read alike, the source gives them in different places.

One may read the IC50 as the concentration needed to halve the response being measured.

In one assay the target is T1, murine Aurora-A (Mus musculus, UniProt P97477).
T1 construct: replaced with the full length protein encoding the murine Aurora-A; made in house; host or cells: sf9 insect cells
T1 sequence (P97477 1-395): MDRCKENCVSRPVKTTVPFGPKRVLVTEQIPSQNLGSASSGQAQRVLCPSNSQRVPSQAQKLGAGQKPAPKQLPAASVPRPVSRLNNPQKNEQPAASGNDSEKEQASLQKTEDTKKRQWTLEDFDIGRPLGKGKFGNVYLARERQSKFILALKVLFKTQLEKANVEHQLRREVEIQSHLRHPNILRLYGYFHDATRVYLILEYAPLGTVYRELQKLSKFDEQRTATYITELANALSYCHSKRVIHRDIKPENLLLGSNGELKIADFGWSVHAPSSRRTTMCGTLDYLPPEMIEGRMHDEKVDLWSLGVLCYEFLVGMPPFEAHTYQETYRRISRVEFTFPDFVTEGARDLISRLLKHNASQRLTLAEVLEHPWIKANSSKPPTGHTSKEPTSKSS
Description: Aurora-A Screening Assay. The format is biochemical. Here is the method:
(§1) A kinase reaction mixture was prepared containing 50 mM Tris-HCl pH=8, 10 mM MgCl2, 0.1 mM Na3PO4, 1 mM DTT, 10 μM ATP, 0.025 μM biotinylated histone-H1 peptide substrate and 0.2 μCuries per well ^33P-γ-ATP (2000-3000 Ci/mmol). 70 μL of the kinase reaction mixture was dispensed into the well of a streptavidin coated FlashPlate™ (Cat. # SMP103, NEN, Boston, Mass.). Then 1 μL of test compound stock in 100% DMSO was added to the wells resulting in a final concentration of 1% DMSO in the reaction with a 100 μL final reaction volume.
(§2) The CDK1:Cyclin-B protein was diluted in 50 mM Tris-HCl pH=8.0, 0.1% BSA at a concentration of 1 ng per μL and 30 μL (30 ng enzyme per test well) was added to each well to initiate the reaction. The reaction was incubated for one hour at 30° C. At the end of the 1 hour incubation, the reaction was terminated by aspirating the mixture from the plate and washing the wells twice with PBS containing 100 mM EDTA. The histone-H1 biotinylated peptide substrate became immobilized on the Flashplate™ and the incorporation of ^33P-γ-ATP was measured by reading the plate on a scintillation counter. Inhibition of the enzymatic activity of CDK1 was measured by observing a reduced amount of ^33P-γ-ATP incorporated into the immobilized peptide.
The Aurora-A kinase assay was carried out using the CDK kinase assay procedure except that the enzyme was replaced with the full length protein encoding the murine Aurora-A (Accession #GB BC014711) expressed and purified from sf9 insect cells.

Assay [1] concerns HeLa cervical adenocarcinoma. As to the kind of experiment: Inhibition of in vitro cell proliferation (HeLa).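 Also: cells exposed to compound for 24 h, then labelled 24 h with methyl 14C-thymidine, with uptake into DNA counted by scintillation against DMSO-only control wells.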 The format is cell-based, human. As to conditions: Homo sapiens, 14C-thymidine incorporation. For orientation: Dividing cells build labelled thymidine or BrdU into new DNA.
Another assay concerns A375 malignant melanoma. Description: Inhibition of in vitro cell proliferation (A375).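 Also: cells plated for 24 h, given compound for 24 h, then labelled with 14C-thymidine for another 24 h, with DMSO-only wells as control and counts read by scintillation.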 The assay is classed as cell-based, human. The settings on record: Homo sapiens, A-375, 14C-thymidine incorporation.
The subject of another assay is HCT-116 colon carcinoma. Description: Inhibition of in vitro cell proliferation (HCT116).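 Also: cells exposed to compound for 24 h, then 14C-thymidine added for a further 24 h and its uptake into DNA counted by scintillation, DMSO-only wells as control.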 The assay is classed as cell-based, human. As to conditions: Homo sapiens, HCT-116, 14C-thymidine incorporation.
In another assay the target is T2, CDK1:Cyclin-B (Homo sapiens, UniProt P06493).
T2 construct: purchased New England Biolabs, Beverly, Mass; 6020; host or cells: insect cells
T2 sequence (P06493 whole entry): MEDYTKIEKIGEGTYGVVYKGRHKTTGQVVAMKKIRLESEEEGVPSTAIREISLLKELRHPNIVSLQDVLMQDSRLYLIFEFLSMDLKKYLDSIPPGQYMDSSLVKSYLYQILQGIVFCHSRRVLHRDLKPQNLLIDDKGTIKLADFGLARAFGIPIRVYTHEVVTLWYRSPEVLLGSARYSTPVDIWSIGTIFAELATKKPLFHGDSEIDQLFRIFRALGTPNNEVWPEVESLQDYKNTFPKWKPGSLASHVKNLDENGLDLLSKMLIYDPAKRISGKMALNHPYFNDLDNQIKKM
T2 sequence (P14635 whole entry partner): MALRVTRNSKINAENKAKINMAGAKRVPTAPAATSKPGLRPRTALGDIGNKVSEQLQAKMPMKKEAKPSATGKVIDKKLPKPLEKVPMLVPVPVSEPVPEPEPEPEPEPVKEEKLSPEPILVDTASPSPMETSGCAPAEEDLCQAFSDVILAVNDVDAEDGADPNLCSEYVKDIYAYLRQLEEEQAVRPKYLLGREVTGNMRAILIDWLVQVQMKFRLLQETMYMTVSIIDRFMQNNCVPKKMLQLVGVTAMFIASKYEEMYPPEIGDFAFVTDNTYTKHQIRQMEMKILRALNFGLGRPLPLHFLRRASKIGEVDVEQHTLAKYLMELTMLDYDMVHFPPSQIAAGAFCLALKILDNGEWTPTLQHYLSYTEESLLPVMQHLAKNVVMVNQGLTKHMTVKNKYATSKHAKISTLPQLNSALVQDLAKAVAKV
As to the kind of experiment: CDK1 Screening Assay. The assay is classed as biochemical. Here is the method: as §1, §2
The CDK1 used was isolated from insect cells expressing both the human CDK1 catalytic subunit and its positive regulatory subunit cyclin B (New England Biolabs, Beverly, Mass., Cat. #6020).

The target in a further assay is T3, HER2 cytoplasmic domain (Homo sapiens, UniProt P04626).
T3 construct: polyhistidine (N)
T3 sequence (P04626 676-1255 limits assumed): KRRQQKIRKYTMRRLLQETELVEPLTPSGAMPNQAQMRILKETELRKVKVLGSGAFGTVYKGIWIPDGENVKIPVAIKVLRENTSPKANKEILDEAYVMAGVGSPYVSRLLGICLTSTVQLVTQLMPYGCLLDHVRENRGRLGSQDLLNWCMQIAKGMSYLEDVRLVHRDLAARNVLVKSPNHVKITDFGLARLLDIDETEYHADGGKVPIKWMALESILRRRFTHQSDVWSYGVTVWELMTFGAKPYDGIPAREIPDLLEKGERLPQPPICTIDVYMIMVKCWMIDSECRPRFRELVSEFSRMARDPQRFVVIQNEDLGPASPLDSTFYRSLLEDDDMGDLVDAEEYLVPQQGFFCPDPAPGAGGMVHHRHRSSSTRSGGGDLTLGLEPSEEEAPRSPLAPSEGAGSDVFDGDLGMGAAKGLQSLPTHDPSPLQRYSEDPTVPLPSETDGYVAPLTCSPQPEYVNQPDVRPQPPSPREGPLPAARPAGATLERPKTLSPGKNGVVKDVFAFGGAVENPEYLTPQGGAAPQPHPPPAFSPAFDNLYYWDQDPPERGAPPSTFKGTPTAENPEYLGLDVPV
Description: HER2 Kinase Screening Assay. The assay is classed as biochemical. The settings on record: > means no observed 50% inhibition at the indicated test concentration; ~ means approximately 50% inhibition at that concentration. Here is the method:
as §1, §2
The HER2 kinase assay was carried out using the CDK kinase assay procedure except that the enzyme was replaced with a HER2 construct containing a polyhistidine tag at the N-terminus followed by 24 additional amino acids and the HER2 cytoplasmic domain beginning at amino acid 676 (Accession #M11730) to the end.

Assay [2] concerns the target T4, rat VEGF-R2 kinase domain (Rattus norvegicus, UniProt O08775).
T4 construct: amino acids 786-1343 of the rat VEGF-R2 kinase domain; polyhistidine (N)
Description: VEGF-R2 Screening Assay. The format is biochemical.

The mark [3] stands for this setting: > means no observed 50% inhibition at the indicated test concentration, ~ means approximately 50% inhibition at that concentration, read-out: IC50 VEGF-R2.

T4 sequence (O08775 786-1343): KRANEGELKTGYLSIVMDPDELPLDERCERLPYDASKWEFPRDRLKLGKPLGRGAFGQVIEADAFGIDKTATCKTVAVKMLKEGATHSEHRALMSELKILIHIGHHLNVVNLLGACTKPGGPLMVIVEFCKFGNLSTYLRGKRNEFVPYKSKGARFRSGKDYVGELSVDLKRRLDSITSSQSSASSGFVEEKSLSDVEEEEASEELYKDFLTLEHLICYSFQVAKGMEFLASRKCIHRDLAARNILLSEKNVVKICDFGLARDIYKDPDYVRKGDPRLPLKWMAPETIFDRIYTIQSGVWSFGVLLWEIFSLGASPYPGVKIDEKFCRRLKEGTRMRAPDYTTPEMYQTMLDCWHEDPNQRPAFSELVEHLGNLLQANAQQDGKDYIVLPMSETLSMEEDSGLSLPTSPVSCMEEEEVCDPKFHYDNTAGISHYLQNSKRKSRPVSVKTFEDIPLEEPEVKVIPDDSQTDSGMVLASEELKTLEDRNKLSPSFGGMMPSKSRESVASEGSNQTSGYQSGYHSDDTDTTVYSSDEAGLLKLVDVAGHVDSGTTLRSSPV

For `CO/N=C/c1c(N)ncnc1Oc1ccc2[nH]c(C)cc2c1` [Cpd 2, 4-amino-6-(2-methyl-1H-indol-5-yloxy)-pyrimidine-5-carbaldehyde O-methyl-oxime], the IC50 at murine Aurora-A is roughly 100 µM; in assay [1], 0.389 µM; with A375 malignant melanoma it was 0.356 µM; with HCT-116 colon carcinoma it was 0.386 µM; against CDK1:Cyclin-B, greater than 100 µM; on HER2 cytoplasmic domain, greater than 1 µM.

Turning to `Cc1cc2c(F)c(Oc3ncnc(N)c3C=NOCCCN(C)C)ccc2[nH]1` [Cpd 17, 4-amino-6-(4-fluoro-2-methyl-1H-indol-5-yloxy)-pyrimidine-5-carbaldehyde O-(3-dimethylamino-propyl)-oxime], the half-inhibitory concentration (IC50) is 33.8 µM at murine Aurora-A, greater than 100 µM against CDK1:Cyclin-B and roughly 10 µM at HER2 cytoplasmic domain.

`C=CCON=Cc1c(N)ncnc1Oc1ccc2[nH]c(C)cc2c1F` [Cpd 31, 4-amino-6-(4-fluoro-2-methyl-1H-indol-5-yloxy)-pyrimidine-5-carbaldehyde O-allyl-oxime]: the half-inhibitory concentration (IC50) on murine Aurora-A was greater than 100 µM; in assay [1] it was 0.042 µM; with A375 malignant melanoma, 0.021 µM; in the assay on HCT-116 colon carcinoma, 0.04 µM; against CDK1:Cyclin-B, greater than 100 µM; at HER2 cytoplasmic domain, greater than 100 µM.

Turning to `COCCCON=Cc1c(N)ncnc1Oc1ccc2[nH]c(C)cc2c1F` [Cpd 33, 4-amino-6-(4-fluoro-2-methyl-1H-indol-5-yloxy)-pyrimidine-5-carbaldehyde O-(3-methoxy-propyl)-oxime], the IC50 on murine Aurora-A is greater than 10 µM; in assay [1] it was 0.346 µM; in the assay with A375 malignant melanoma it was 0.3 µM; in the assay on HCT-116 colon carcinoma, 0.438 µM; at CDK1:Cyclin-B it was greater than 100 µM; against HER2 cytoplasmic domain it was 3.99 µM.

In the case of `CNC(=O)n1c(C)cc2c(F)c(Oc3ncnc(N)c3C=NOC)ccc21` [Cpd 43, 5-[6-amino-5-(methoxyimino-methyl)-pyrimidin-4-yloxy]-4-fluoro-2-methyl-indole-1-carboxylic acid methylamide], the concentration for half-maximal inhibition (IC50) is greater than 100 µM against murine Aurora-A, roughly 1 µM in assay [2] (setting [3]), greater than 100 µM at CDK1:Cyclin-B and greater than 10 µM against HER2 cytoplasmic domain.

As to `CNC(=O)Cc1ccc(Oc2ncnc(N)c2C=NOC)cc1` [Cpd 96, 2-{4-[6-amino-5-(methoxyimino-methyl)-pyrimidin-4-yloxy]-phenyl}-N-methyl-acetamide], the IC50 at murine Aurora-A is greater than 10 µM; in assay [2] (IC50 VEGF-R2), 19.7 µM; against CDK1:Cyclin-B it was greater than 100 µM; at HER2 cytoplasmic domain it was greater than 100 µM.

As for `CNC(=O)c1ccc(Oc2ncnc(N)c2C=NOC)cc1` [Cpd 98, 4-[6-amino-5-(methoxyimino-methyl)-pyrimidin-4-yloxy]-N-methyl-benzamide], the IC50 against murine Aurora-A, against CDK1:Cyclin-B and against HER2 cytoplasmic domain was greater than 100 µM each time.

As for `CON=Cc1c(N)ncnc1Oc1ccc(CC(=O)Nc2cccc(F)c2)cc1` [Cpd 100, 2-{4-[6-amino-5-(methoxyimino-methyl)-pyrimidin-4-yloxy]-phenyl}-N-(3-fluoro-phenyl)-acetamide], the IC50 on murine Aurora-A is greater than 100 µM; on CDK1:Cyclin-B it was greater than 100 µM; on HER2 cytoplasmic domain, 2.8 µM.

Turning to `CCNC(=O)Cc1ccc(Oc2ncnc(N)c2C=NOC)cc1` [Cpd 101, 2-{4-[6-amino-5-(methoxyimino-methyl)-pyrimidin-4-yloxy]-phenyl}-N-ethyl-acetamide], the values for the IC50 against murine Aurora-A, at CDK1:Cyclin-B and against HER2 cytoplasmic domain were greater than 10 µM, greater than 100 µM and greater than 100 µM, respectively.

In the case of `CCNC(=O)Oc1ccc(Oc2ncnc(N)c2C=NOC)cc1` [Cpd 102, ethyl-carbamic acid 4-[6-amino-5-(methoxyimino-methyl)-pyrimidin-4-yloxy]-phenyl ester], the figures for the concentration for half-maximal inhibition (IC50) against murine Aurora-A, at CDK1:Cyclin-B and at HER2 cytoplasmic domain were greater than 10 µM, greater than 100 µM and greater than 100 µM, respectively.

Turning to `CCNC(=O)Nc1ccc(Oc2ncnc(N)c2C=NOCCN2CCOCC2)cc1Cl` [Cpd 103, 1-(4-{6-amino-5-[(2-morpholin-4-yl-ethoxyimino)-methyl]-pyrimidin-4-yloxy}-2-chloro-phenyl)-3-ethyl-urea], the 50% inhibitory concentration (IC50) was greater than 100 µM against murine Aurora-A, 0.093 µM in assay [2] (setting [3]), greater than 100 µM against CDK1:Cyclin-B and greater than 100 µM against HER2 cytoplasmic domain.

As for `CCNC(=O)Nc1ccc(Oc2ncnc(N)c2C=NOCCOC)cc1Cl` [Cpd 104, 1-(4-{6-amino-5-[(2-methoxy-ethoxyimino)-methyl]-pyrimidin-4-yloxy}-2-chloro-phenyl)-3-ethyl-urea], the IC50 was greater than 100 µM against murine Aurora-A, 0.041 µM in assay [2] (setting [3]), greater than 100 µM against CDK1:Cyclin-B and greater than 100 µM at HER2 cytoplasmic domain.

In the case of `CON=Cc1c(N)ncnc1Oc1ccc(OC(=O)Nc2cccc(Cl)c2)cc1` [Cpd 105, (3-chloro-phenyl)-carbamic acid 4-[6-amino-5-(methoxyimino-methyl)-pyrimidin-4-yloxy]-phenyl ester], the IC50 (on murine Aurora-A; in assay [2] (setting [3]); against CDK1:Cyclin-B; against HER2 cytoplasmic domain) was greater than 100 µM each time.

As for `CON=Cc1c(N)ncnc1Oc1cc(OC)cc(OC)c1` [Cpd 106, 4-amino-6-(3,5-dimethoxyphenoxy)-5-pyrimidinecarboxaldehyde O-methyloxime], the IC50 is greater than 100 µM against murine Aurora-A, greater than 10 µM in assay [2] (setting [3]), greater than 100 µM at CDK1:Cyclin-B and greater than 10 µM at HER2 cytoplasmic domain.

In the case of `CCOC(=O)c1c(C)[nH]c2ccc(Oc3ncnc(N)c3/C=N/OC)cc12` [Cpd 107, 5-[{6-amino-5-[(E)-(methoxyimino)methyl]-4-pyrimidinyl}oxy]-2-methyl-1H-indole-3-carboxylic acid ethyl ester], the IC50 (against murine Aurora-A; in assay [2] (setting [3]); against CDK1:Cyclin-B; against HER2 cytoplasmic domain) was greater than 100 µM each time.

Regarding `CON=Cc1c(N)ncnc1Oc1ccc2c(c1)OCO2` [Cpd 108, 4-amino-6-(1,3-benzodioxol-5-yloxy)-5-pyrimidinecarboxaldehyde O-methyloxime], the IC50 was greater than 10 µM against murine Aurora-A, 3.96 µM in assay [2] (setting [3]), greater than 100 µM at CDK1:Cyclin-B and greater than 10 µM against HER2 cytoplasmic domain.

For the compound `CON=Cc1c(N)ncnc1Oc1ccc(F)c(Cl)c1` [Cpd 109, 4-amino-6-(3-chloro-4-fluorophenoxy)-5-pyrimidinecarboxaldehyde O-methyloxime], the IC50 is greater than 100 µM against murine Aurora-A, greater than 100 µM in assay [2] (setting [3]), greater than 100 µM against CDK1:Cyclin-B and greater than 1 µM against HER2 cytoplasmic domain.

At HER2 cytoplasmic domain, `CON=Cc1c(N)ncnc1OCc1cccc(F)c1` [Cpd 112, 4-amino-6-[(3-fluorophenyl)methoxy]-5-pyrimidinecarboxaldehyde O-methyloxime] registered an IC50 greater than 10 µM.

For the compound `CO/N=C/c1c(N)ncnc1Oc1ccc2[nH]cc(CCNC(C)=O)c2c1` [Cpd 113, N-[2-{5-[{6-amino-5-[(E)-(methoxyimino)methyl]-4-pyrimidinyl}oxy]-1H-indol-3-yl}ethyl]-acetamide], the IC50 (on murine Aurora-A; in assay [2] (setting [3]); on CDK1:Cyclin-B; at HER2 cytoplasmic domain) was greater than 100 µM in each case.

As for `CON=Cc1c(N)ncnc1OCc1ccc2ccccc2c1` [Cpd 115, 4-amino-6-(2-naphthalenylmethoxy)-5-pyrimidinecarboxaldehyde O-methyloxime], the IC50 in assay [2] (setting [3]) is greater than 10 µM.
